In article PMC11943435, “Functional Investigation of the Receptor to the Major Pheromone Component in the C-Strain and the R-Strain of the Fall Armyworm Spodoptera frugiperda” (Insects, 2025):

Biological target: T1, C-SfruOR13 (SfruOR13 from the C-strain) (Spodoptera frugiperda, UniProt A0A9R0CXR4)
T1 construct: gene LOC118264496; full-length ORF (435 residues), synthesized, pUAST.attB; expressed in Drosophila at1 trichoid OSNs (Or67d-GAL4) replacing OR67d; Orco is that of the fly host; with Odorant receptor coreceptor (endogenous, Drosophila melanogaster)
T1 sequence (A0A9R0CXR4 1-435): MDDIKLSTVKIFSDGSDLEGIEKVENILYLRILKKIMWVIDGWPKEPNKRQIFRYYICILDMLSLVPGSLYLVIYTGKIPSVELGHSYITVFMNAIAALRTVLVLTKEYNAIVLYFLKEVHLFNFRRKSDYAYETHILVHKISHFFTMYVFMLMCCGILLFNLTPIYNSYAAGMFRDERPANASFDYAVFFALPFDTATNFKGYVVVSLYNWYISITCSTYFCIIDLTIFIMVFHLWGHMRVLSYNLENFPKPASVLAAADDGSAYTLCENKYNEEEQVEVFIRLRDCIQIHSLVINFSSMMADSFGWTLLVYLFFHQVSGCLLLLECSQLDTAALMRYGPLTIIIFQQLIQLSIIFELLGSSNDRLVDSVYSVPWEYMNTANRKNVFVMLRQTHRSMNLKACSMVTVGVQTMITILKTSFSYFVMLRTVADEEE
T1 sequence (Q9VNB5 1-486 partner): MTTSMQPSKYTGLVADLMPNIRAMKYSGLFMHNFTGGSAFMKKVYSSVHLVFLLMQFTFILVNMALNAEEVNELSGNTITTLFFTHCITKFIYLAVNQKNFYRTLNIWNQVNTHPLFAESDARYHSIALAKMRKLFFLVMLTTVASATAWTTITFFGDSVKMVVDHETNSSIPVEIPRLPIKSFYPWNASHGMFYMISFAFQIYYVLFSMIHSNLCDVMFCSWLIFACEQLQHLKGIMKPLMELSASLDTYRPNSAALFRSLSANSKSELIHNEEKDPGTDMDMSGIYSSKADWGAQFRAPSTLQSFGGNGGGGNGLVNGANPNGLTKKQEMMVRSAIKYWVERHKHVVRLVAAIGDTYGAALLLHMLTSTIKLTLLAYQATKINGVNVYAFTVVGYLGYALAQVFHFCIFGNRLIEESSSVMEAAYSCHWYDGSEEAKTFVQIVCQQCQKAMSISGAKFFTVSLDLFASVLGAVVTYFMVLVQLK
Assay: single-sensillum recording, Drosophila at1 OSNs, dose-response
Type: cell-based
Conditions: agonist; vapour stimulus, 10 ng to 10 µg loaded on filter paper in hexane

SMILES: CCCC/C=C\CCCCCCCCOC(C)=O [(Z)-9-14:OAc, (Z)-9-tetradecenyl acetate]
- single-sensillum recording, Drosophila at1 OSNs, dose-response: C-SfruOR13 was significantly activated by the same three compounds that elicited a response in R-SfruOR13
